Source: patent US8628770B2, “Slimming cosmetic composition containing a substance inducing the production of IL-6” (Sanofi, priority 1999, dated 2014)

System: mature adipocytes 3T3-L1
Test: Production of IL-6 by the mature adipocytes 3T3-L1 (ELISA)
Type: cell-based, murine
Settings: reference IL-6 inducer at 50 ng/ml
From the text: The biological effects of substance C in vitro has been studied on the murine line 3T3-L1. This preadipocyte line, routinely cultured in DMEM medium ([…]) enriched with 10% foetal calf serum has the property of differentiating into mature adipocytes in the presence of inducers such as insulin and indomethacin (Slieker L. J. Biochem. Biophys. Res. Com. 1998, 251, 225-229). […] This passage from the stage of immature cell to the stage of functional adipocyte can be morphologically assessed by the appearance of intracytoplasmic lipid storage vesicles which are visible under the microscope or which can be biochemically detected by measuring the production of leptin, the hormone for satiety produced solely by mature adipocytes.
The influence of substance C on the adipocyte activity was evaluated at two levels. […]
Mature adipocytes 3T3-L1 (harvested after 10 days of differentiation induced by the insulin (5 μg/ml) and indomethacin (125 μm) combination) are stimulated with substance C at 1% (v/v) for 24 hours. The culture supernatant is then removed and its IL-6 content measured by ELISA (Enzyme Linked Immunosorbent Assay) according to the supplier's instructions (R&D Systems, Abingdon, GB). […]

TNF-α
IL-6 content of culture supernatant: 52 pg/mL
